Calls of active or inactive are those of the source. The calls are words filed in the database; no cut-off is given here.
Tests used:
[1] = tested on: Mycobacterium tuberculosis; test: Inhibition of siderophore production in Mycobacterium bovis BCG at 250 to 1000 mM incubated for 15 days by universal CAS assay; assay type: functional, organism-based; details: variant bovis BCG
[2] = tested on: Mycobacterium tuberculosis; test: Inhibition of myco-bactins production in Mycobacterium bovis BCG at 250 to 1000 mM by universal CAS assay; assay type: functional, organism-based; details: variant bovis BCG

N#Cc1cccc(-c2ccc(C(=O)O)o2)c1
inhibition [1]: Active | inhibition [2]: Active
